In data set [1] the test system is thrombus. Nature of the data set: In vivo imaging of deep vein thrombosis with Tc-99m labeled thrombus targeting peptide, canine model. The note with it: Tc-99m labeled peptide, i.v., dog, ratio.
Description: (§1) Mongrel dogs (25–35 lb., fasted overnight) were sedated with a combination of ketamine and aceprozamine intramuscularly and then anesthetized with sodium pentabarbital intravenously. In each animal, an 18-gauge angiocath was inserted in the distal half of the right femoral vein and a 5 mm or 8 mm Dacron®-entwined stainless steel embolization coil (Cook Co., Bloomington Ind.) was placed in the femoral vein at approximately mid-femur. The catheter was removed, the wound sutured and the placement of the coil documented by X-ray. The animals were then allowed to recover overnight.
(§2) One day following coil placement, each animal was re-anesthetized, intravenous saline drips placed in each foreleg and a urinary bladder catheter inserted to collect urine. The animal was placed supine under a gamma camera equipped with a low-energy, all purpose collimator and photopeaked for Tc-99m. […] The second line was maintained for blood collection.
(§3) Gamma camera imaging was started simultaneously with injection. Anterior images over the heart were acquired as a dynamic study (10 sec image acquisitions) over the first 10 min, and then as static images at 1, 2, 3 and 4h post-injection. Anterior images over the legs were acquired for 500,000 counts or 20 min (whichever is shorter), at approximately 10–20 min, and at approximately 1, 2, 3 and 4h post-injection. Leg images were collected with a lead shield placed over the bladder.
(§4) Following collection of the final image, each animal was deeply anesthetized with pentobarbital. Two blood samples were collected using a heparinized syringe followed by a euthanizing dose of saturated potassium chloride solution administered by intercardiac or bolus intravenous injection. […] The thrombus, coil and coil Dacron fibres were then dissected free of the vessel. The thrombus, saline-washed vessel samples, coil and coil Dacron® fibres were separated, and each sample was placed in a pre-weighed test tube. The samples were weighed and counted in a gamma well counter in the Tc-99m channel, along with known fractions of the injected doses.
(§5) Fresh thrombus weight, percent injected dose (% ID)/g in the thrombus and blood obtained just prior to euthanasia and thrombus/blood and thrombus/muscle ratios were determined. From the computer-stored images, thrombus/background ratios were determined by analysis of the counts/pixel measured in regions-of-interest (ROI) drawn over the thrombus and adjacent muscle.
Assay in data set [2]: as above
Particulars: mongrel, dog, thrombus, iv, total radioactivity.
Description: as §1, §2, §3, §4, §5

Data set [3] addresses T1, somatostatin receptor (Rattus norvegicus, UniProt P30680).
T1 construct: endogenous in cells; host or cells: AR42J rat pancreatic tumor cells (membrane preparation)
Nature of the data set: Inhibition of [125I-Tyr11]somatostatin-14 binding to AR42J rat pancreatic tumor cell membranes. Particulars: [125I-Tyr11]somatostatin-14 0.5 nM, 25 min at 30° C. How it is done: The rat pancreatic tumor cell line AR42J expressing the somatostatin receptor was cultured in Dulbecco's modified essential media (DMEM) supplemented with 10% fetal calf serum (FCS) and 8 mM glutamine in a humidified 5% CO2 atmosphere at 37° C. Harvested cells were homogenized in cold buffer (50 mM Tris-HCl, pH 7.4), and the homogenate was then centrifuged at 39,000 g for 10 min at 4° C. Pellets were washed once with buffer and then resuspended in ice-cold 10 mM Tris-HCl buffer (pH 7.4). Equal aliquots of this cell membrane preparation were then incubated with [^125I-Tyr^11]somatostatin-14 (Amersham, Arlington Heights, Ill.) at a final concentration of 0.5 nM at 750,000 cpm/mL, specific activity 2000Ci/mmol and either a peptide or peptide-rhenium complex of the invention (at a final concentration ranging from […] in 50 mM HEPES buffer, pH 7.4, containing 1% bovine serum albumin, 5 mM MgCl2, 0.02 mg/mL bacitracin, 0.02 mg/mL phenylmethyl-sulfonylfluoride and 200,000 IU Trasylol) for 25 min at 30° C.
After incubation, this membrane mixture was filtered through a polyethyleneimine-washed GC/F filter (Whatman Ltd., Maidstone, England) using a filtration manifold, and the residue remaining on the filter was washed three times with 5 mL cold HEPES buffer. The filter and a sample of the filter washings were then counted on a gamma counter. […]

No end group written: not given here.

T1 sequence (P30680 whole entry): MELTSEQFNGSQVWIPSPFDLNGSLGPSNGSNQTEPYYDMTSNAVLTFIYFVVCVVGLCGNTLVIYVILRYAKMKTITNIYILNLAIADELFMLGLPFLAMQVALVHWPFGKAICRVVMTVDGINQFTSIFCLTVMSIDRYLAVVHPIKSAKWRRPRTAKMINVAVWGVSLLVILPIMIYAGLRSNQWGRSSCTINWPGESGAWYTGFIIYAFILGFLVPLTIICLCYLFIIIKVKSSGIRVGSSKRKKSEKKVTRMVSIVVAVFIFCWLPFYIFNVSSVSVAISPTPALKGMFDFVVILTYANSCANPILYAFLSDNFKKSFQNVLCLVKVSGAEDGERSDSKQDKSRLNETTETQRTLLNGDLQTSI

One may read the tissue uptake as the share of the injected amount in each gram of the tissue. As for `CC(=O)NCSC[C@H](NC(=O)CNC(=O)CNC(=O)[C@@H]1CSCC(=O)N[C@H](Cc2ccc(O)cc2)C(=O)N[C@@H](Cc2ccc(C(=N)N)cc2)C(=O)NCC(=O)N[C@@H](CC(=O)O)C(=O)N1)C(=O)NCC(=O)N[C@@H](CSCNC(C)=O)C(=O)NCC(=O)NCC(=O)N[C@@H](CSCC(=O)NCCCC[C@H](NC(=O)CSC[C@H](NC(=O)CNC(=O)CNC(=O)[C@H](CSCNC(C)=O)NC(=O)CNC(=O)[C@H](CSCNC(C)=O)NC(=O)CNC(=O)CNC(=O)[C@@H]1CSCC(=O)N[C@H](Cc2ccc(O)cc2)C(=O)N[C@@H](Cc2ccc(C(=N)N)cc2)C(=O)NCC(=O)N[C@@H](CC(=O)O)C(=O)N1)C(N)=O)C(=O)NCCCC[C@H](N)C(=O)NCC(=O)N[C@@H](CS)C(N)=O)C(N)=O` [Peptide P747, (CH2CO.YD.Amp.GDCGGCAcmGCAcmGGC.amide)2(CH2CO)2K(ε-K)GC.amide], in data set [1], the Thrombus/Blood was 15 and the Thrombus/Muscle is recorded as 70. Besides, the tissue uptake at 4 h in data set [2] is 0.043 %ID/g.

As usually defined, the Ki is a measure of affinity in units of concentration, obtained from inhibition or displacement. “AKCGGGFDYWDKTFT.amide (AKCGGGFDYWDKTFT-NH2) [Peptide P398]” displayed a Ki in data set [3] of 1.4 nM.

The values above are taken from patent US7238340B1, “Monoamine, diamide, thiol-containing metal chelating agents” (CIS bio international, priority 1991, dated 2007).
